Data: ChEMBL document CHEMBL5726791, “Inhibitors of lysine specific demethylase-1” (2018)

Target: Lysine-specific histone demethylase 1A (Homo sapiens, UniProt O60341)
Assay: In Vitro Enzyme Inhibition Assay: The enzymatic assay of LSD1 activity is based on Time Resolved-Fluorescence Resonance Energy Transfer (TR-FRET) detection. The inhibitory properties of compounds to LSD1 were determined in 384-well plate format under the following reaction conditions: 0.1-0.5 nM LSD1, 50 nM H3K4mel-biotin labeled peptide (Anaspec cat #64355), 2 μM FAD in assay buffer of 50 mM HEPES, pH7.3, 10 mM NaCl, 0.005% Brij35, 0.5 mM TCEP, 0.2 mg/ml BSA. Reaction product was determined quantitatively by TR-FRET after the addition of detection reagent Phycolink Streptavidin-allophycocyanin (Prozyme) and Europium-anti-unmodified histone H3 lysine 4 (H3K4) antibody (PerkinElmer) in the presence of LSD1 inhibitor such as 1.8 mM of Tranylcypromine hydrochloride (2-PCPA) in LANCE detection buffer (PerkinElmer) to final concentration of 12.5 nM and 0.25 nM respectively.

IC50: < 100 nM
Compound: Cn1ncc2cc(-c3sc(N4CC[C@@H]5CNC[C@@H]5CC4)nc3-c3ccc(C#N)cc3)ccc21
